Experimental data from patent US20230226198A1, “Artemisinin Derivatives” (DA ZEN THERANOSTICS, INC., priority 2019, published 2023).
Read-outs that look alike come from different tables or passages of the source.

Experiments:
C4-2B MDVR cells = test: Seahorse XF mitochondrial function (OCR/ECAR); format: cell-based, human; conditions: 5 uM, over 12 hours
Procedure: Example 5 C: To determine mitochondrial function of cancer cells (here C4-2B MDVR), the cells are treated with vehicle, DZ (5 uM), DHA (5 uM), and DZ-003 (5 uM) over 12 hours, and the oxygen consumption rate (OCR) from respiration and extracellular acidification rate (ECAR) from glycolysis of the live cells is determined in a metabolic chamber in a 24-well plate format using a Seahorse XF analyzer (Seahorse XFe24, Agilent, Calif.). Reagents (drugs/controls) are added to the wells just before start of the recording at time 0, and the effect of the drugs on the basal mitochondrial function is recorded by the analyzer for about 12 hours (720 minutes). All reagents used are Agilent reagents. Cells are seeded and cultured in Seahorse XF RPMI Medium, pH 7.4. The seeding rate is 8×10^5 for the cells to reach about 90% confluency within about 24 hours when the analysis is started. The protocol is essentially performed as per the standard protocol of the manufacturer, removing the medium, washing the cells once with XF Real-Time ATP Rate Assay Medium, then starting the measurement as per the instrument's pre-programming and subsequent real-time measurements of OCAR/ECAR. Preliminary experiments indicate that the THAD as described herein may have an increased effect compared to DZ3a.

[1] = tested on: MDVR cells (Enzalutamide-resistant C4-2B prostate cancer cells); test: MTT cell viability / IC50 assay, MDVR; format: cell-based; conditions: Homo sapiens
Procedure: (§1) Cell culture: In the following examples, unless otherwise specified, all cell lines are purchased from American Type Culture Collection and cultured in American Type Culture Collection (ATCC)-recommended media, with fetal bovine serum (FBS) to a final concentration of 10% and 1× penicillin/streptomycin at 37° C. with 5% CO2 in a cell culture incubator, unless otherwise specified. Unless otherwise specified, culture is 2D. Where culture is 3D, low attachment plates are used, with the same media. C4-2B (ATCC® CRL-3315™, human prostate cancer cells of epithelial morphology) parental cell line and drug-resistant cells derived therefrom) are cultured in RPMI-1640 with 10% FBS. MDVR cells (an Enzalutamide-resistant variety of C4-2B prostate cancer cells formed as described below) are cultured as indicated for the parental C4-2B cells. Caki-1 cells (human clear cell renal cell carcinoma cells) are cultured in ATCC-formulated McCoy's 5a Medium Modified (ATCC Catalog No. 30-2007) with 10% FBS. PC3 cells (ATCC® CRL-1435™, a human prostate cancer cell line of epithelial morphology initiated from a bone metastasis of a grade IV prostatic adenocarcinoma) are cultured in F-12K with 10% FBS. 22RV1 Prostate Cancer (PC) cells (ATCC® CRL-2505™, a human prostate carcinoma cell line of epithelial morphology) are cultured in RPMI-1640 with 10% FBS. DU145 cells (ATCC® HTB-81™, a human cell line derived from a prostate-originating brain metastase, not detectably hormone sensitive, not expressing prostate antigen; forms adenocarcinoma grade II in nude mice) are cultured in ATCC-formulated Eagle's Minimum Essential Medium (EMEM, Catalog No. 30-2003). H446 cells (ATCC® HTB-171™, a human small cell carcinoma SC lung cancer (SCLC) cell line derived from a metastatic site) are cultured in RPMI-1640 with 10% FBS. H358 cells (ATCC® CRL-5807™, a human non-small cell lung cancer (NSCLC) cell line that expresses protein and RNA of SP-A, the major lung surfactant associated protein, and produces tumors in athymic nude mice) are cultured in RPMI-1640 Medium with 10% FBS. BxPC3 cells (ATCC® CRL-1687™, an adenocarcinoma-derived pancreatic cancer cell line that expresses pancreas cancer specific antigen and carcinoembryonic antigen and forms tumors in nude mice) are cultured in RPMI-1640 with 10% FBS.
Resistant prostate cancer cell lines MDVR and AbiR: MDVR cells are Enzalutamide-resistant cells, AbiR are Abiraterone acetate resistant cells, formed from parental C4-2B prostate cancer cells as follows. A cell assay is performed exposing cells cultured as described above to various drugs indicated below for 72 hours. Parental C4-2B cells are C4-2B non-resistant cells not previously exposed to cancer drugs. Drug-resistant C4-2B cells are created by prolonged exposure to the relevant drug, i.e. Enzalutamide for MDVR, and Abiraterone acetate for AbiR cells, at initially sub-lethal and gradually increasing concentrations until resistance is achieved.
Example 1: A cell assay is performed exposing cells cultured as described above to various drugs indicated below for 24 hours unless otherwise indicated. Each of the cell lines is treated either with a THAD (e.g. DZ-DHA-ether, MI-148-bis-DHA), or for comparison, with the DHA mono-ester “DZ-DHA”; alternatively/additionally, DZ1 and/or unconjugated DHA may serve as comparants. For each cell line, the IC50 is determined for each drug in concentrations from 0 to 100 μM. […] In the controls (not shown in the figures), the cells are exposed to DMSO (vehicle) for a final concentration that equals the highest concentration of the drug tested, to a maximum concentration less than 0.1% v/v. 4 hours before culture end/SDS addition, 10 μL MTT (3-(4,5-Dimethyl-2-thiazolyl)-2,5-diphenyl-2H-tetrazolium bromide, Sigma-Aldrich) is added to wells containing the cells. At the end of culture, 100 μl 10% SDS is added and then the plate containing the cells is placed in a 37° C. cell culture incubator for 8 hours. […]

[2] = tested on: Caki-1 cells (human clear cell renal cell carcinoma cells); test: MTT cell viability / IC50 assay, Caki-1; format: cell-based
Procedure: as §1
Example 1: A cell assay is performed exposing cells cultured as described above to various drugs indicated below for 24 hours unless otherwise indicated. Each of the cell lines is treated either with a THAD (e.g. DZ-DHA-ether, MI-148-bis-DHA), or for comparison, with the DHA mono-ester “DZ-DHA”; alternatively/additionally, DZ1 and/or unconjugated DHA may serve as comparants. For each cell line, the IC50 is determined for each drug in concentrations from 0 to 100 μM. […] In the controls (not shown in the figures), the cells are exposed to DMSO (vehicle) for a final concentration that equals the highest concentration of the drug tested, to a maximum concentration less than 0.1% v/v. 4 hours before culture end/SDS addition, 10 μL MTT (3-(4,5-Dimethyl-2-thiazolyl)-2,5-diphenyl-2H-tetrazolium bromide, Sigma-Aldrich) is added to wells containing the cells. At the end of culture, 100 μl 10% SDS is added and then the plate containing the cells is placed in a 37° C. cell culture incubator for 8 hours. The absorbance density of the supernatant is read on a 96-well microplate reader at wavelength 595 nm. The results of Caki-1 and MDRV are indicated in the table below along with preliminary results for further cancer cell lines (including, e.g., C4-2B, Abi-R, PC3, 22Rv1, DU145, H358, H446, BxPC3), and the corresponding curves are shown in FIG. 2A (Caki-1) and FIG. 2B (MDVR).

[3] = tested on: L858R/T790M EGFR versus wild-type EGFR; conditions: inhibiting phosphorylation of EGFR in cell lines; cited from earlier work
[4] = ENZ-resistant C4-2B cells (MDVR), unit inferred, read-out: IC50 (FIG. 2B description)
[5] = MDVR, 24 hours, relative IC50, read-out: IC50
[6] = Caki-1, 24 hours, relative IC50, read-out: IC50
[7] = Caki-1, unit inferred, read-out: IC50 (FIG. 2A description)

IC50 [1, 4] | IC50 [1, 5] | IC50 [2, 6] | IC50 [2, 7] | Structure (SMILES) | lowering of OCR (in words) (C4-2B MDVR cells) | potency against L858R/T790M relative to wild-type EGFR [3]
– | – | – | – | CC1(C)C(/C=C/C2=C(Cl)C(=C/C=C3/N(CCCCCC(=O)O)c4ccccc4C3(C)C)/CCC2)=[N+](CCCCS(=O)(=O)[O-])c2ccccc21 [DZ1] | drop much less | –
3470 nM | < 3470 nM | 1420 nM | 500 to 1500 nM | C[C@@H]1CC[C@H]2[C@@H](C)C(OCCNC(=O)CCCCCN3/C(=C/C=C4\CCCC(/C=C/C5=[N+](CCCCS(=O)(=O)[O-])c6ccccc6C5(C)C)=C4Cl)C(C)(C)c4ccccc43)O[C@@H]3O[C@]4(C)CC[C@@H]1[C@]32OO4 (stereo partly shown) [DZ-DHA-ether] | – | –
< 1000 nM | 860 nM | 710 nM | 500 to 1500 nM | C[C@@H]1CC[C@H]2[C@@H](C)C(OC(=O)CCCCCN3/C(=C/C=C4\CCCC(/C=C/C5=[N+](CCCCCC(=O)OC6O[C@@H]7O[C@]8(C)CC[C@H]9[C@H](C)CC[C@@H]([C@H]6C)[C@@]79OO8)c6ccccc6C5(C)C)=C4Cl)C(C)(C)c4ccccc43)O[C@@H]3O[C@]4(C)CC[C@@H]1[C@]32OO4 (stereo partly shown) [MHI-148-bis-DHA] | – | –
– | – | – | – | C=CC(=O)Nc1cc(Nc2nccc(-c3cn(C)c4ccccc34)n2)c(OC)cc1N(C)CCN(C)C [Osimertinib] | – | 100-200 times
